Experimental data reported in PMC6283615, “Anilinoquinoline based inhibitors of trypanosomatid proliferation” (PLoS Neglected Tropical Diseases, 2018).
≈ marks a conversion by molar mass, not a printed value. Entries after “also recorded” stand apart in the source; their conditions may differ.

How the values were obtained:
Aqueous solubility = type: physicochemical
[1] = Rat hepatocyte intrinsic clearance; type: in vitro ADME; conditions: hepatocytes
[2] = test system: T. vivax STIB 719 / ILRAD 560; test: Ex vivo drug sensitivity assay for T. vivax (48 h); type: cell-based; conditions: Trypanosoma vivax, STIB719, 48 h
Description: Ex vivo drug sensitivity assay for T. vivax (48 h): Compounds were tested ex vivo against the STIB 719 / ILRAD 560 T. vivax (drug sensitive) strain which originated from the Y486 strain, isolated from a naturally infected bovine in 1976 in Zaria, Nigeria. Compounds were assayed in at least three separate, independent experiments and an 11-point dilution curve was used to determine the EC50 values. Bloodstream form trypanosomes were harvested from a highly parasitaemic mouse (via cardiac puncture) and were incubated with test compounds for 45 h at 37°C in a humidified atmosphere containing 5% CO2, supported in HMI-9 medium containing 20% bovine serum. Thereafter, Resazurin dye was added to monitor trypanosome viability as described in the preceding section.

T. congolense IL3000 = test: In vitro drug sensitivity assay for T. congolense (72 h); type: cell-based; conditions: Trypanosoma congolense, IL3000 strain
Description: In vitro drug sensitivity assay for T. congolense (72 h): Compounds were tested in vitro for efficacy against the IL3000 T. congolense (drug sensitive) strain which was originally derived from the Trans Mara I strain, isolated from a bovine in 1966 in Kenya. […] Compounds were assayed in at least three separate, independent experiments and an 11-point dilution curve was used to determine the EC50 values. Bloodstream form trypanosomes were supported in HMI-9 medium containing 20% bovine serum and were incubated with test compounds for 69 h at 34°C in a humidified atmosphere containing 5% CO2. Thereafter, 10 μL of Resazurin dye (12.5 mg in 100 mL of phosphate-buffered saline, Sigma-Aldrich, Buchs, Switzerland) was added for an additional 3 h. Plates were read using a fluorescence plate reader (Spectramax, Gemini XS, Bucher Biotec, Basel, Switzerland) using an excitation wavelength of 536 nm and an emission wavelength of 588 nm.

LogD7.4 = type: physicochemical; conditions: pH 7.4
[3] = Human liver microsome intrinsic clearance; type: in vitro ADME
L. major amastigote = test: L. major intracellular amastigote luciferase assay in RAW 264.7 macrophages; type: cell-based, Leishmania major; conditions: Leishmania major, RAW264.7; intracellular amastigotes in RAW 264.7 macrophages, 96 h
Outline: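 Murine RAW 264.7 macrophages were infected overnight with luciferase-expressing L. major metacyclic promastigotes (MOI 1:10). Non-internalized parasites were washed off before 96 h compound exposure (0.5–10,000 ng/mL) at 37°C, 5% CO2.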

T. brucei brucei CA427 = test: Murine model of acute HAT (T. b. brucei infected mice); type: in vivo
Description: Bloodstream form (BSF) T. brucei brucei CA427 parasites were maintained at densities below 1×10^6 cells/mL in HMI-9 media supplemented with 10% fetal bovine serum (Atlanta Biologicals), 10% SERUM PLUS (Sigma), and 1% Antibiotic-Antimycotic Solution (Corning cellgro) at 37°C, 5% CO2 [18]. Parasites were centrifuged at 5000 xg for 3 min at room temperature and resuspended in cold 1xPBS containing 1% glucose to yield a solution of 2.5×10^6 cells/mL. Correct cell density following resuspension was confirmed using a Z2 Coulter Counter (Beckman). Parasite viability was observed by motility with a Neubauer Bright-line hemocytometer. Cells were kept on ice until infection.
Compound 14 –on day 0, female Swiss-Webster mice (8–10 weeks old, 20–25 g, n = 4 per group) (Harlan) were infected i.p. with 2.5×10^5 trypanosomes by injecting 100 μL of resuspension using 26G needles. Day 1 to 3 post-infection, mice received a single i.p. dose of either drug vehicle (dimethylsulfoxide, 3.4 mL/kg) (Fisher Scientific) or drug (14, 25 mg/kg). Parasitemia was determined on days 2 and 3 post-infection by collecting 3 μL of blood from the tail vein.
Day 1 to 3 post-infection, mice received a single p.o. dose of either drug vehicle (10% NMP and 90% PEG, 10 mL/kg) (Fisher Scientific) or drug (22, 60 mg/kg). From days 4 to 6, the dose was increased to 70 mg/kg for the mice in the treatment group. Parasitemia was determined on days 3 to 6 post-infection by collecting 3 μL of blood from the tail vein.
Blood samples were mixed with 21 μL of RBC Lysis Solution (Qiagen) and incubated at room temperature for 15–45 min prior to observing for parasites by hemocytometer. Humane euthanasia by CO2 overdose followed by incision to form a bilateral pneumothorax was conducted on mice at study termination. All animal experimental protocols were approved and performed in accordance with the guidelines of the Institutional Animal Care and Use Committee (IACUC) at the University of Georgia.

SMILES	solubility (Aqueous solubility) [µM]	hepatocyte CLint [1] [µL/min/1e6 cells]	EC50 [2] [nM]	EC50 (T. congolense IL3000) [nM]	logD (LogD7.4)	microsomal CLint ([3]; liver microsomes) [µL/min/mg]	EC50 (L. major amastigote) [nM]	Toxicity in infected mice (T. brucei brucei CA427; 25 mg/kg i.p.)	Mice showing 10-fold reduction in parasitemia (T. brucei brucei CA427; 25 mg/kg i.p., n = 4) [%]	Mice with no detectable parasitemia (T. brucei brucei CA427; 25 mg/kg i.p., n = 4)	Reduction in parasitemia (T. brucei brucei CA427; 25 mg/kg i.p., vs DMSO vehicle) [fold]	LogD7.4 (LogD7.4)	Human Liver Microsome CLint [3] [µL/min/mg]	Parasitemia vs control group (T. brucei brucei CA427; p.o. once daily 60 mg/kg days 1-3, then 70 mg/kg, by day 5, vehicle 10% NMP 90% PEG)	Toxicity in infected mice (T. brucei brucei CA427; p.o. once daily 60 mg/kg, first three days)
CN1CCN(c2ncc(-c3ccc4c(Nc5ccc(OCc6cccc(F)c6)c(Cl)c5)ccnc4c3)cn2)CC1 [Compound 14]	< 1	24	200	160	3.4	54	1500	no evidence of toxicity	75	one had no detectable parasitemia	10				
CN1CCN(c2ncc(-c3ccc4c(Nc5cnccn5)ccnc4c3)cn2)CC1 [Compound 22]	44 (≈ 17.5 µg/mL)	130	720	50			2500					3.3	180	no statistically significant difference; also recorded: failed to affect parasitemia	no signs of toxicity
